The results in this text go back to patent US10865216B2, “Tricyclic Gyrase inhibitors” (MERCK SHARP & DOHME CORP., priority 2012, dated 2020).

As a reminder, the MIC is the lowest concentration found to suppress growth.

Values after ≈ are worked out from the molar mass of the structure shown. Where two headings read alike, the source gives them in different places.

In experiment [1] the test system is E. coli ATCC 25922. Nature of the experiment: MIC, E. coli ATCC 25922. Format: cell-based. Particulars: for MIC: Escherichia coli.
The subject of experiment [2] is S. aureus ATCC 13709. Briefly: MIC, S. aureus ATCC 13709. To be noted: for MIC: Staphylococcus aureus. Format: cell-based.
Setting [3] is: E. coli, Alamar Blue read after overnight incubation at 35° C.
[4] abbreviates: S. aureus, Alamar Blue read after overnight incubation at 35° C.
[5] abbreviates: ATCC25922, E. coli, Alamar Blue read after overnight incubation at 35° C., read-out: MIC Ec.
Where [6] appears, read: ATCC13709, S. aureus, Alamar Blue read after overnight incubation at 35° C., read-out: MIC Sa.

On to `CNc1cccc2c1[nH]c1nc(Sc3cnc4ccc[n+]([O-])c4c3)nc(N3CC4C(N)C4C3)c12` (centres unmarked) [Compound 1.71], for which, in experiment [1] (setting [3]), the “MIC Ec” value is ≤0.5 µg/mL. Also, the “MIC Sa” value in experiment [2] (setting [4]) was ≤0.5 µg/mL.
Consider `CNc1cc(F)cc2c1[nH]c1nc(Oc3cnc4cccnc4c3)nc(N3CC4NCCOC4C3)c12` (centres unmarked) [Compound 4.048], for which the “MIC Ec” value in experiment [1] (setting [3]) came to 1 µg/mL (≈ 2.06 µM). In addition, in experiment [2] (setting [4]), the “MIC Sa” value is ≤0.5 µg/mL.
For `CCNc1cccc2c1[nH]c1nc(Sc3cnc4ccc[n+]([O-])c4c3)nc(N3CC4C(N)C4C3)c12` (centres unmarked) [Compound 1.10], the MIC in experiment [1] (setting [5]) is 4 µg/mL (≈ 8.25 µM); in experiment [2] (setting [6]), ≤ 0.5 µg/mL.
With `CNc1cc(F)cc2c1[nH]c1nc(Oc3cnc(C)nc3)nc(N3CC4C(CN)C4C3)c12` (centres unmarked) [Compound 4.106], the “MIC Ec” value in experiment [1] (setting [3]) came to 2 µg/mL (≈ 4.6 µM). For the same compound, in experiment [2] (setting [4]), the “MIC Sa” value was ≤0.5 µg/mL.
Consider `CNc1cc(F)cc2c1[nH]c1nc(Oc3ccc4ccnn4c3)nc(N3C[C@H]4C[C@@H](N)[C@H]4C3)c12` [Compound 10.53], for which, in experiment [1] (Table 18, Ec), the MIC Ec was ≤ 0.5 µg/mL. For the same compound, the MIC Sa in experiment [2] (Table 18, Sa) was ≤ 0.5 µg/mL.
For `CNc1cc(F)cc2c1[nH]c1nc(Oc3cnc(C)nc3)nc(N3CC(N)C(C(=O)NCCN4CCOCC4)C3)c12` (centres unmarked) [Compound 4.440], the results for the MIC in experiment [1] (setting [5]) and in experiment [2] (setting [6]) were > 16 µg/mL and 16 µg/mL (≈ 28.3 µM), respectively.
Regarding `CNc1cc(F)cc2c1[nH]c1nc(Oc3cnc(C)nc3)nc(N3CC[C@H](CN)C3)c12`, the minimum inhibitory concentration (MIC) in experiment [1] (ATCC25922, Table 16, new R4 substituents, EC8 not defined, read-out: EC8 MIC) was ≤ 0.5 µg/mL; in experiment [2] (ATCC13709, Table 16, new R4 substituents, read-out: SA MIC), ≤ 0.5 µg/mL.
In the case of `CNc1cc(F)cc2c1[nH]c1nc(Oc3cnc(C)nc3)nc(N3CC(N)C(C(=O)OC)C3)c12` (centres unmarked) [Compound 4.437], the minimum inhibitory concentration (MIC) in experiment [1] (setting [5]) is 1 µg/mL (≈ 2.14 µM); in experiment [2] (setting [6]), ≤ 0.5 µg/mL.
Regarding `CNc1cc(F)cc2c1[nH]c1nc(Oc3cnc4c(C)cnn4c3)nc(N3CC4C[C@@H](N)C4C3)c12` (some centres unmarked) [Compound 10.30], in experiment [1] (Table 18, Ec), the MIC Ec was ≤ 0.5 µg/mL. In experiment [2] (Table 18, Sa), the MIC Sa is ≤ 0.5 µg/mL.
Take `CNc1cc(F)cc2c1[nH]c1nc(Oc3cnc(C)nc3)nc(N3CC4CC(OS(N)(=O)=O)C4C3)c12` (centres unmarked) [Compound 10.99]: in experiment [1] (Table 18, Ec), the MIC Ec was ≤ 0.5 µg/mL. For the same compound, in experiment [2] (Table 18, Sa), the MIC Sa was ≤ 0.5 µg/mL.
Consider `CCc1ncc(Oc2nc(N3CCC4(CC4N)C3)c3c(n2)[nH]c2c(NC)cc(F)cc23)cn1` (centres unmarked) [Compound 4.263], for which the “MIC Ec” value in experiment [1] (setting [3]) is ≤0.5 µg/mL. In addition, in experiment [2] (setting [4]), the “MIC Sa” value was ≤0.5 µg/mL.
Take `CNc1cc(F)cc2c1[nH]c1nc(Oc3cncc(C)c3)nc(N3CC4CC(N)C4C3)c12` (centres unmarked) [Compound 4.303]: in experiment [1] (setting [3]), the “MIC Ec” value was ≤0.5 µg/mL. Besides, the “MIC Sa” value in experiment [2] (setting [4]) was ≤0.5 µg/mL.
For the compound `CNc1cc(F)cc2c1[nH]c1nc(Oc3cnc(N)nc3)nc(N3CCC(N)C3)c12` (centres unmarked) [Compound 4.179], the “MIC Ec” value in experiment [1] (setting [3]) was 1 µg/mL (≈ 2.44 µM). Besides, the “MIC Sa” value in experiment [2] (setting [4]) is ≤0.5 µg/mL.
The like results for `CNc1cc(F)cc2c1[nH]c1nc(Oc3cncc(F)c3)nc(N3CC4(CCC4N)C3)c12` (centres unmarked) [Compound 4.061] were, in that order, ≤0.5 µg/mL and ≤0.5 µg/mL.
For `CNc1cccc2c1[nH]c1nc(Sc3cnc4cccnc4c3)nc(N3C[C@@H](N)C[C@H]3C)c12` [Compound 1.60], the MIC in experiment [1] (setting [5]) turned out to be 2 µg/mL (≈ 4.38 µM); in experiment [2] (setting [6]) it was 0.5 µg/mL (≈ 1.1 µM).
In turn, `CNc1cc(F)cc2c1[nH]c1nc(NCc3cccnc3)nc(N3C[C@H]4C[C@@H]3C[C@H]4N)c12` [Compound 10.48] had an MIC Ec in experiment [1] (Table 18, Ec) of 16 µg/mL (≈ 37 µM). The compound further displayed an MIC Sa in experiment [2] (Table 18, Sa) of 8 µg/mL (≈ 18.5 µM).
The like results for `CNc1cc(F)c(F)c2c1[nH]c1nc(Oc3cnc(C(C)O)nc3)nc(N3CC4(CC[C@]4(C)N)C3)c12` (some centres unmarked) [Compound 10.81] were, in that order, 0.5 µg/mL (≈ 1.01 µM) and ≤ 0.5 µg/mL.
In the case of `CNc1cc(F)cc2c1[nH]c1nc(Sc3cnc4ccc[n+]([O-])c4c3)nc(N3CC4C(N)C4C3)c12` (centres unmarked) [Compound 1.50], the MIC in experiment [1] (setting [5]) and in experiment [2] (setting [6]) was ≤ 0.5 µg/mL in each case.
`CNc1ncc(Oc2nc(N3CC[C@@H](N)C3)c3c(n2)[nH]c2c(NC)cc(F)cc23)cn1` [Compound 4.219]: in experiment [1] (setting [3]), the “MIC Ec” value was ≤0.5 µg/mL. In addition, in experiment [2] (setting [4]), the “MIC Sa” value is ≤0.5 µg/mL.
For `CNc1cccc2c1[nH]c1nc(Oc3cncnc3)cc(N3CC(F)[C@@H](N)C3)c12` (some centres unmarked) [Compound 3.63], the figures for the MIC in experiment [1] (setting [5]) and in experiment [2] (setting [6]) were 8 µg/mL (≈ 20.3 µM) and ≤ 0.5 µg/mL, respectively.
Take `CNc1cc(F)cc2c1[nH]c1nc(Oc3cnc(C)nc3)nc(N3CC4CCC(CN)C4C3)c12` (centres unmarked) [Compound 4.112]: the “MIC Ec” value in experiment [1] (setting [3]) worked out at 1 µg/mL (≈ 2.16 µM). Further, the “MIC Sa” value in experiment [2] (setting [4]) was ≤0.5 µg/mL.
For the compound `CNc1cccc2c1[nH]c1nc(Sc3cncnc3)nc(N3CC(N)C4(CC4)C3)c12` (centres unmarked) [Compound 1.44], the figures for the MIC in experiment [1] (setting [5]) and in experiment [2] (setting [6]) were 2 µg/mL (≈ 4.78 µM) and 1 µg/mL (≈ 2.39 µM), respectively.
With `CNc1cc(F)cc2c1[nH]c1nc(Oc3ccc4oc(C)nc4c3)nc(N3CC4CCC(N)C4C3)c12` (centres unmarked) [Compound 4.336], the “MIC Ec” value in experiment [1] (setting [3]) worked out at 1 µg/mL (≈ 2.05 µM). The “MIC Sa” value in experiment [2] (setting [4]) was ≤0.5 µg/mL.
As for `CNc1cccc2c1[nH]c1nc(Oc3cncnc3)nc(Oc3cncnc3)c12` [Compound 8.1], the MIC in experiment [1] (setting [5]) is > 64 µg/mL; in experiment [2] (setting [6]), 2 µg/mL (≈ 5.18 µM).
Turning to `Cc1ncc(Oc2nc(N3C[C@H](N)C4(CC4)C3)c3c(n2)[nH]c2c(N(C)C(=O)[C@H](C)NC(=O)[C@H](C)N)cc(F)cc23)cn1` [Compound 4.425], the MIC in experiment [1] (setting [5]) and in experiment [2] (setting [6]) was > 16 µg/mL throughout.
